{"source": "paper PMC6906394", "about": "“Radiomodifying action, Pharmacokinetic and Biodistribution of Ethyl 3, 4, 5-trihydroxybenzoate-Implication in development of radiomitigator” (Scientific Reports, 2019)", "key": {"[1]": {"assay": "Stability of GAE in mice plasma and liver homogenate (QC samples)", "format": "in vitro ADME", "conditions": "for Stability % Long term: 2 week of storage at −20 °C; for freeze-thaw stability (fraction remaining) at 50 ng/mL / freeze-thaw stability (fraction remaining) at 250 ng/mL / freeze-thaw stability (fraction remaining) at 500 ng/mL: mouse, three consecutive freeze thaw cycles (−20 °C to room temperature)", "description": "The recovery of GAE at three concentration was 79.3, 89.6 and 99.2% in plasma. […] The analyte were also shown to be stable in the plasma at room temperature for atleast 8 h with a reduction of less than 12–15% (Table 1). Based on the result reliable, reproducible and robust method has been developed and validated.\nStandard stock solutions of GAE at 1 mg/mL were prepared and dissolved in appropriate amounts of diluent stock, water, and methanol (8:2 v/v). GAE was adequately diluted with diluent stock to give an intermediate solution at 100 µg/mL for each analyte. GAE calibration standards were at concentration of 5, 10, 20, 30, 40, 50, 100, 250, 500 ng/mL. Internal standard propyl gallate (PG) were prepared to spiked aliquots of blank mouse plasma (200 µL). […] combined spiking solution at a final concentration of 5, 10, 20, 40, 50, 100, 250, 500 and 1000 ng/mL were prepared and used to spike aliquots of blank tissue homogenates of Liver, kidney, heart, brain, and spleen (400 µL). The entire sample was stored at 4 °C. Quality control samples were prepared independently in the same biological matrices (plasma and tissue homogenate of liver) stored at −20 °C until use with each analytical run. Intra-day and inter-day precision were assessed by using six replicate QC samples at three levels of GAE included in each run to determine the accuracy and precision. […] The inter-day accuracy and precision were assessed by analyzing three batches on different days. The recoveries of GAE from plasma and tissue (liver) homogenate samples were done at three QC levels. The recovery of the analyte was calculated by comparing the analyte peaks of extracted QC samples against the equivalent aqueous solution.\nThe QC samples were kept at room temperature for 6 h and a freeze-thaw cycle (−80 °C) was repeated for three times. […] For all storage conditions, replication of three concentrations was analyzed after the operation and the experimental result was obtained through a chromatographic area and compared with the nominal values. On the basis of previous studies reported on pharmacokinetic and biodistribution[22],[23], we standardized and validated our study to further investigate the radiomodifying action of GAE."}, "NF-kB": {"system": "NF-kB", "assay": "Immunofluorescent staining of NF-kB expression in liver and kidney sections", "format": "in vivo, mice", "conditions": "R + GAE group, compared to irradiated group", "description": "Black C57BL/6 male mice weighing 28–30 g were maintained at the Institutional Animal Experimental Facility. Animals were fed according to standard chow diet having free access to food and water ad libitum. The environmental condition was maintained at room temperature (22 ± 2 °C), relative humidity (45–60%) and 12 h dark/light cycle controlled facility. In this study, mice were randomly assigned to four different groups (n = 21) i.e untreated control (UC), GAE-treated (GAE), Radiation + GAE (R + GAE), Radiation group (R). Mice fasted overnight with free access to water before being dosed. Isolated GAE from leaves was dissolved with distilled water and ethanol in (7:3 v/v) and administered orally at a dose of 200 mg/kg body weight to GAE-treated and R + GAE treated groups only. The experiment was carried out in accordance to regulation and guideline of the, Committee for the purpose of control and supervision of Experiments on animals (CPCSEA), and study was approved by Institutional Animal Experimental Committee (IAEC), Institute of Nuclear Medicine & Allied Science, Delhi, India.\nGroup I untreated control (UC), Group II GAE-treated (GAE), Group III Radiation + GAE (R + GAE) and Group IV Radiation (R) exposed. The GAE was administered orally 15 min post irradiation. […]"}}, "note": "“Also recorded” adds a separate entry of the source.", "data": [{"smiles": "CCOC(=O)c1cc(O)c(O)c(O)c1", "note": "[GAE, Ethyl 3,4,5-trihydroxybenzoate]", "values": [{"measurement": "reduction after freeze-thaw cycle", "setting": "[1]; freeze-thaw cycle", "result": "less than 8%"}, {"measurement": "Stability % Long term", "setting": "[1]; liver, 50 ng/mL", "result": "62.6 ± 24.5", "unit": "%"}, {"measurement": "Stability % Short term", "setting": "[1]; liver, 50 ng/mL, room temperature for 24 h", "result": "66.9 ± 22.18", "unit": "%"}, {"measurement": "Stability % Long term", "setting": "[1]; liver, 250 ng/mL", "result": "79.26 ± 6.06", "unit": "%"}, {"measurement": "Stability % Short term", "setting": "[1]; liver, 250 ng/mL, room temperature for 24 h", "result": "86.8 ± 1.7", "unit": "%"}, {"measurement": "Stability % Long term", "setting": "[1]; liver, 500 ng/mL", "result": "95.13 ± 7.6", "unit": "%"}, {"measurement": "Stability % Short term", "setting": "[1]; liver, 500 ng/mL, room temperature for 24 h", "result": "99.9 ± 0.47", "unit": "%"}, {"measurement": "freeze-thaw stability (fraction remaining) at 50 ng/mL", "setting": "[1]; liver homogenate, liver, 50 ng/mL", "result": "0.648 ± 0.049"}, {"measurement": "freeze-thaw stability (fraction remaining) at 250 ng/mL", "setting": "[1]; liver homogenate, liver, 250 ng/mL", "result": "0.842 ± 0.025"}, {"measurement": "freeze-thaw stability (fraction remaining) at 500 ng/mL", "setting": "[1]; liver homogenate, liver, 500 ng/mL", "result": "0.978 ± 0.049"}, {"measurement": "freeze-thaw stability (fraction remaining) at 50 ng/mL", "setting": "[1]; plasma, 50 ng/mL", "result": "0.79 ± 0.0225"}, {"measurement": "freeze-thaw stability (fraction remaining) at 250 ng/mL", "setting": "[1]; plasma, 250 ng/mL", "result": "0.901 ± 0.0093"}, {"measurement": "freeze-thaw stability (fraction remaining) at 500 ng/mL", "setting": "[1]; plasma, 500 ng/mL", "result": "0.9342 ± 0.0037"}, {"measurement": "Stability % Long term", "setting": "[1]; plasma, 50 ng/mL", "result": "70.32 ± 1.37", "unit": "%"}, {"measurement": "Stability % Short term", "setting": "[1]; plasma, 50 ng/mL, room temperature for 24 h", "result": "79.35 ± 1.37", "unit": "%"}, {"measurement": "Stability % Long term", "setting": "[1]; plasma, 250 ng/mL", "result": "87.55 ± 0.635", "unit": "%"}, {"measurement": "Stability % Short term", "setting": "[1]; plasma, 250 ng/mL, room temperature for 24 h", "result": "89.67 ± 1.58", "unit": "%"}, {"measurement": "Stability % Long term", "setting": "[1]; plasma, 500 ng/mL", "result": "92.01 ± 0.179", "unit": "%"}, {"measurement": "Stability % Short term", "setting": "[1]; plasma, 500 ng/mL, room temperature for 24 h", "result": "99.25 ± 0.120", "unit": "%"}, {"measurement": "reduction in plasma at room temperature", "setting": "[1]; plasma, room temperature for at least 8 h", "result": "12–15%"}, {"measurement": "stability at room temperature", "setting": "[1]; room temperature for 24 h, plasma and tissue samples", "result": "stable"}, {"measurement": "stability at −20 °C", "setting": "[1]; −20 °C for one month", "result": "stable"}, {"measurement": "NF-kB positive fluorescence expression", "setting": "NF-kB", "result": "not strong; also recorded: not positive"}]}]}
